One data set relates to carrageenin edema. The data set is described as follows: Carrageenin edema test in rats (antiinflammatory). The note with it: for change in vivo at 300 mg/kg / change in vivo at 200 mg/kg / change in vivo at 75 mg/kg: Rattus norvegicus; for change in vivo at 300 mg/kg: 300 mg/kg oral; for change in vivo at 200 mg/kg: 200 mg/kg oral; for % var. / action (variation of paw volume increase vs controls) / change in vivo at 75 mg/kg: 75 mg/kg oral. Format: in vivo. As for the experimental part: The antiinflammatory properties were shown by the carrageenin edema test in rats, the products having been administered orally 1 hour before the intrapodal injection of 0.05 ml of a 2% suspension of carrageenin; the volume of the rat's paw was measured by plethysmoscopy 3, 4 and 6 hours afterwards.
The experiment concerned for each lot […]; one lot of animals receiving only the vehicle (2 ml/100 g of Tween + water) which served for the administration of the products, constituted the control lot. The following table sets forth the results obtained: […]
For orientation: Carrageenan injected into the paw causes an acute inflammation.

The next data set in a line: Solubility properties. Format: physicochemical. Conditions: for Solubility in ethyl alcohol: ethyl alcohol / ethanol / alcohol; for Solubility in water: in words; for Solubility in alcohol of 95° GL: alcohol / ethanol of 95° GL.
For data set [1], the system named is writhings induced by acetic acid. The experiment in a line: Writhing test, acetic acid (analgetic). Format: in vivo, male mouse. Conditions: 200 mg/kg by mouth, t + 60 to t + 70 min. As for the experimental part: The administration of the compounds is effected by mouth at the time t. […] The determination of the writhings is effected from t + 60 min. to t + 70 min. The vehicle used for the administration of the products is a 5% solution of Tween 80 in 0.9% NaCl which will serve as control.

The nature of data set [2]: Acute toxicity in mice, oral LD50 (method of Miller & Tainter). Conditions: mouse, in vivo, mortality determined 48 hours after administration. As for the experimental part: The chemical compounds previously described were submitted to toxicity tests. It was determined in mice by oral administration and was calculated in accordance with the method of MILLER & TAINTER. It is generally low and greater than 1000 mg/kg.

The mark [3] stands for this setting: + 3 hrs, read-out: % increase in volume of the paw, mean (m).
Setting [4] is: + 3 hrs, read-out: Action (variation of paw volume increase vs controls).
Setting [5] is: + 4 hrs, read-out: % increase in volume of the paw, mean (m).
[6] abbreviates: + 4 hrs, read-out: Action (variation of paw volume increase vs controls).
Where [7] appears, read: + 6 hrs, read-out: % increase in volume of the paw, mean (m).
The mark [8] stands for this setting: + 6 hrs, read-out: Action (variation of paw volume increase vs controls).
The mark [9] stands for this setting: read-out: % mean variation of the volume of the paw at 3, 4 and 6 hrs.
Setting [10] is: sodium salt, water, read-out: Solubility in form of sodium salt.

Molecules are shown by their SMILES. Like-named read-outs stand apart in the source and are kept apart here.

What is called solubility is the dissolved amount per volume that the medium holds. The term LD50 denotes the dose at which mortality reaches 50%.

As for `C=C(CC(=O)c1ccc(-c2ccc(Br)cc2)cc1)C(=O)O` [F 1378], the change in vivo at 300 mg/kg is 45.4% with carrageenin edema (setting [3]); -26% in the data set on carrageenin edema (setting [4]); 47.9% with carrageenin edema (setting [5]); -21% in the data set on carrageenin edema (setting [6]); 52.4% in the data set on carrageenin edema (setting [7]); -8% with carrageenin edema (setting [8]). Besides, the change in vivo at 300 mg/kg with carrageenin edema (setting [9]) was -18.3%.
On to `C=C(CC(=O)c1ccc(Oc2ccccc2)cc1)C(=O)O` [Example 4, 2-methylene 4-oxo 4-(paraphenoxyphenyl) butyric acid], for which the “Solubility in NN dimethyl formamide” value in “Solubility properties” (NN dimethyl formamide) is 50%. Besides, in “Solubility properties”, the Solubility in acetone is recorded as 10%, the “Solubility in ethyl alcohol” value came to 3% and the “Solubility in propylene glycol” value is listed as 1%. This molecule gave a Solubility in chloroform in the data set “Solubility properties” (chloroform) of 5%. In addition, in the data set “Solubility properties” (setting [10]), the solubility was determined as 100000 µg/mL. The Solubility in water entry in the data set “Solubility properties” (water) was “insoluble”.
Consider `C=C(CC(=O)c1ccc(Oc2ccccc2)cc1)C(=O)O` [F 1380], for which the change in vivo at 200 mg/kg with carrageenin edema (setting [3]) was 50.3%; in the data set with carrageenin edema (setting [4]) it was -18%; with carrageenin edema (setting [5]), 52.8%; in the data set on carrageenin edema (setting [6]), -12%; in the data set on carrageenin edema (setting [7]), 55.6%; with carrageenin edema (setting [8]), -3%. The change in vivo at 200 mg/kg in the data set with carrageenin edema (setting [9]) is -11%.
For `CC(=CC(=O)c1ccccc1)C(=O)O` [F 1351, 2-methyl 4-oxo 4-phenyl 2-butenoic acid], the change in vivo at 300 mg/kg with carrageenin edema (setting [3]) is 29.7%; in the data set with carrageenin edema (setting [4]) it was -41%; with carrageenin edema (setting [5]) it was 33.8%; with carrageenin edema (setting [6]), -32%; with carrageenin edema (setting [7]) it was 40.6%; in the data set with carrageenin edema (setting [8]), -12%. In addition, the “% Decrease (of writhings)” value in data set [1] is reported as 48,2%. For the same molecule, in data set [1], the “Mean No. of Writhings” value is on record as 28,0. Moreover, the “Solubility in ethyl alcohol” value in “Solubility properties” is given as 5%. In the data set “Solubility properties”, the “Solubility in propylene glycol” value is 3%. Also, the solubility in “Solubility properties” (setting [10]) amounted to 10000 µg/mL.
`CC(=O)Oc1ccccc1C(=O)O` [acetylsalicyclic acid, reference compound]: in data set [1], the “% Decrease (of writhings)” value was 36,6% and the “Mean No. of Writhings” value is 24,7.
Regarding `C=C(CC(=O)c1ccc2c(c1)CCCC2)C(=O)O` [F 1495, 2-methylene 4-oxo 4-(1'-2'-3'-4'-tetrahydronaphthalene) butyric acid], in “Solubility properties”, the “Solubility in N-methyl pyrrolidone” value turned out to be 50%, the “Solubility in alcohol of 95° GL” value stood at 8% and the “Solubility in NN-dimethyl acetamide” value turned out to be 50%. The Solubility in water entry in “Solubility properties” (water) is “insoluble”.
Consider `C=C(CC(=O)c1cccc2ccccc12)C(=O)O` [F 1494, 2-methylene 4-oxo 4-naphthalene butanoic acid], for which, in the data set “Solubility properties”, the “Solubility in N-methyl pyrrolidone” value is given as 50%, the “Solubility in NN-dimethyl acetamide” value is 50% and the “Solubility in ethyl alcohol” value is 3%. Moreover, the Solubility in water entry in the data set “Solubility properties” (water) was “insoluble”.
Regarding `C=C(CC(=O)c1ccc(Cl)cc1)C(=O)O` [F 1352, 2-methylene 4-oxo 4-(parachlorophenyl) butyric acid], the change in vivo at 300 mg/kg in the data set with carrageenin edema (setting [3]) was 35.8%; with carrageenin edema (setting [4]) it was -28%; in the data set with carrageenin edema (setting [5]) it was 37.9%; in the data set with carrageenin edema (setting [6]), -24%; in the data set on carrageenin edema (setting [7]) it was 37.3%; with carrageenin edema (setting [8]) it was -19%. For the same molecule, in the data set with carrageenin edema (setting [9]), the change in vivo at 300 mg/kg was -23.6%. The “% Decrease (of writhings)” value in data set [1] is recorded as 40,3%. Also, the “Mean No. of Writhings” value in data set [1] is 26,6. Also, in the data set “Solubility properties”, the “Solubility in N-methyl pyrrolidone” value stood at 25%. The “Solubility in ethyl alcohol” value in “Solubility properties” was found to be 3%. Further, the solubility in the data set “Solubility properties” (setting [10]) came to 10000 µg/mL. Further, the Solubility in water result in the data set “Solubility properties” (water) was “insoluble”.
As for `CC(=CC(=O)c1ccccc1)C(=O)Nc1cccc(C(F)(F)F)c1` [F 1442, 2-methyl 4-oxo 4-phenyl N(m-trifluoromethylphenyl) 2-butenamide], the entries for the “% var. / action (variation of paw volume increase vs controls)” value with carrageenin edema (3 hrs), in the data set with carrageenin edema (4 hrs) and in the data set with carrageenin edema (6 hrs) were -16%, -14% and -11%, respectively. For the same molecule, the change in vivo at 75 mg/kg was 50% with carrageenin edema (3 hrs, read-out: % increase in volume of the paw, mean (m)); 51% in the data set on carrageenin edema (4 hrs, read-out: % increase in volume of the paw, mean (m)); 49% in the data set on carrageenin edema (6 hrs, read-out: % increase in volume of the paw, mean (m)); -13% in the data set with carrageenin edema (setting [9]). The molecule further displayed an LD50 at 48 h in data set [2] greater than 1000 mg/kg. In addition, the “Solubility in N-methyl pyrrolidone” value in “Solubility properties” is recorded as 40%. In “Solubility properties”, the “Solubility in alcohol of 95° GL” value was 30%. The “Solubility in NN-dimethyl acetamide” value in the data set “Solubility properties” came out at 40%. Also, the Solubility in water result in the data set “Solubility properties” (water) is on record as “insoluble”.
On to `CC(=CC(=O)c1ccc(-c2ccccc2Cl)cc1)C(=O)Nc1cccc(C(F)(F)F)c1` [F 1441], for which the “Solubility in ethyl alcohol” value in the data set “Solubility properties” was 6%. Moreover, the Solubility in water result in the data set “Solubility properties” (water) was “insoluble”.
For the molecule `C=C(CC(=O)c1ccccc1)C(=O)O` [F 1350, 2-methylene 4-oxo 4-phenyl butyric acid], the change in vivo at 300 mg/kg in the data set on carrageenin edema (setting [3]) was 34.3%; with carrageenin edema (setting [5]) it was 39.7%; in the data set with carrageenin edema (setting [7]), 46.1%; with carrageenin edema (setting [8]), 0%; in the data set with carrageenin edema (setting [9]) it was -17%. Besides, in data set [1], the “% Decrease (of writhings)” value is on record as 42,3%. Moreover, in data set [1], the “Mean No. of Writhings” value was 25,7. This molecule also gave a Solubility in acetone in “Solubility properties” of 6%. In the data set “Solubility properties”, the “Solubility in NN-dimethyl acetamide” value is listed as 10%. The “Solubility in dimethyl sulfoxide” value in “Solubility properties” (dimethyl sulfoxide) was found to be 25%. Moreover, the “Solubility in ethyl alcohol” value in “Solubility properties” amounted to 3%. Moreover, the solubility in the data set “Solubility properties” (setting [10]) was 10000 µg/mL. The Solubility in water result in the data set “Solubility properties” (water) is listed as “insoluble”.
With `C=C(CC(=O)c1ccc(-c2ccc(Br)cc2)cc1)C(=O)O` [Example 5, 2-methylene 4-oxo 4-(phenyl-4'-parabromophenyl) butyric acid], in the data set “Solubility properties”, the “Solubility in N-methyl pyrrolidone” value was determined as 25% and the “Solubility in ethyl alcohol” value was 1%. Moreover, in the data set “Solubility properties” (water), the Solubility in water result was “insoluble”.
As for `CC(=CC(=O)c1ccccc1)C(=O)N1CCOCC1` [F 1443, N-(4-phenyl 4-oxo 2-methyl 2-butenoyl)morpholine], in the data set “Solubility properties”, the “Solubility in N-methyl pyrrolidone” value stood at 5%, the “Solubility in alcohol of 95° GL” value is listed as 1.5% and the “Solubility in NN-dimethyl acetamide” value is 5%. In “Solubility properties” (water), the Solubility in water result is “insoluble”.
Take `CC(=CC(=O)c1ccc(-c2ccccc2)cc1)C(=O)O` [F 1448, 2-methyl 4-oxo 4-(4'-phenylphenyl) 2-butenoic acid]: in “Solubility properties”, the “Solubility in N-methyl pyrrolidone” value turned out to be 20%, the “Solubility in NN-dimethyl acetamide” value is given as 25% and the “Solubility in ethyl alcohol” value worked out at 1%. The Solubility in water entry in “Solubility properties” (water) was “insoluble”.
Turning to `C=C(CC(=O)c1ccc(OC)c(-c2ccccc2)c1)C(=O)O` [F 1497, 2-methylene 4-oxo 4-(3' phenyl, 4'-methoxyphenyl) butyric acid], in “Solubility properties”, the “Solubility in alcohol of 95° GL” value amounted to 6% and the “Solubility in NN-dimethyl acetamide” value turned out to be 30%. The Solubility in water result in “Solubility properties” (water) was “insoluble”.
For the molecule `C=C(CC(=O)c1ccc(-c2ccccc2Cl)cc1)C(=O)O` [F 1496, 2-methylene 4-oxo 4-(4'-orthochlorophenylphenyl) arginine butyrate], the Solubility in water entry in “Solubility properties” (water) is “soluble”.
For the molecule `C=C(CC(=O)c1ccc(C2CCCCC2)cc1)C(=O)O` [F 1353, 2-methylene 4-oxo 4-(paracyclohexylphenyl) butyric acid], in the data set “Solubility properties”, the “Solubility in NN-dimethyl acetamide” value was found to be 20%, the “Solubility in ethyl alcohol” value came out at 3% and the “Solubility in propylene glycol” value is on record as 1%. Moreover, in the data set “Solubility properties” (water with sodium bicarbonate, water + sodium bicarbonate, read-out: Solubility in water by addition of sodium bicarbonate), the solubility turned out to be 10000 µg/mL. For the same molecule, in the data set “Solubility properties” (water), the Solubility in water entry is recorded as “insoluble”.

These data come from US4008323A, “Method of reducing cholesterol using certain aromatic keto acids” (Pierre Fabre S.A., priority 1974, dated 1977).
